Results on two compounds are retold here after US12029738B2, “Antiproliferative compounds and methods of use thereof” (Celgene Corporation, priority 2017, dated 2024).

SMILES strings stand for the structures. “Also recorded” adds a separate entry of the source.

For one data set, the system named is H929-1051 xenograft. Kind of data set: Lenalidomide-resistant H929-1051 xenograft, continuous QD dosing. The format is in vivo, mouse. An excerpt: FIG. 4. Antitumor activity of Compound 2 with continuous dosing in lenalidomide-resistant H929-1051 xenograft model. Female SCID mice were inoculated with 10×10^6 H929-1051 tumor cells into the right flank. Mice were randomized into treatment groups (n=10/group) at the time of treatment initiation. Test article treatment started on Day 14 when the tumors were approximately 120 mm^3.
Antitumor Activity of Compound 2 in Lenalidomide-resistant Multiple Myeloma Xenograft Model. The purpose of the study was to test the single agent antitumor activity of Compound 2 in an H929-1051 xenograft model with once daily dosing (QD) at 1, 3, 10, and 30 mg/kg.

In data set [1] the test system is lenalidomide-resistant NCI-H929 (H929-1051) multiple myeloma/plasmacytoma tumors. Briefly: H929-1051 xenograft, Compound 2 alone and with dexamethasone. The format is in vivo, mouse.
Another data set has as its system MM cell lines. Briefly: Daratumumab-mediated ADCC assay. The format is cell-based, human. The protocol:
ADCC Assay: The effect of Compound 2 or pomalidomide on daratumumab-mediated ADCC was evaluated in vitro by flow cytometry in a panel of MM cell lines. The NK cells were cultured overnight in NK culture medium containing 10 U/mL of recombinant human IL-2 before the start of the assay. The NK cells were washed and resuspended back in NK cell culture medium at 3.75×10^6 cells/mL. The MM cells were pretreated with sub-lethal concentrations of Compound 2 or pomalidomide for 72 h before using in the ADCC assay. The MM cells were washed and labelled with Tag-it Violet™ Proliferation and Cell Tracking Dye according to the manufacturer's instructions, followed by resuspension in NK culture medium at a concentration of 0.75×10^6 cells/mL. The ADCC assay was performed in triplicate with an effector to tumor ratio of 10:1 in a 96 well plate. MM cells (10 μL) were mixed with 10 μL of 2× concentration of daratumumab in the wells before the addition of 20 μL of NK cells. The co-cultures were incubated at 37° C. for 3 h followed by the addition of 50 μL of 7-AAD solution at room temperature for 15 minutes. The analysis was performed on a BD Celesta flow cytometer.

Data set [2] has as its system neutrophil progenitors (bone marrow CD34+ cells from healthy donors). Briefly: Ex vivo maturation of myeloid progenitors to adult neutrophils. How it is done:
Methods: Ex vivo cultures of bone marrow (BM) CD34^+ cells from healthy donors (HD) were used to investigate neutrophil-specific ex vivo maturation. In vitro differentiation of neutrophil progenitors was induced by adding stem cell factor (SCF), fins-related tyrosine kinase 3 ligand (Flt3-L), and granulocyte colony stimulating factor (G-CSF) to culture media. Cell differentiation was evaluated by flow cytometry as the percentage of cells in 5 subpopulations: hematopoietic stem cells (HSC, CD34^+/CD33^−/CD11b^−) and Stage I (CD34^+/CD33^+/CD11b^−), Stage II (CD34^−/CD33^+/CD11b^−), Stage III (CD34^−/CD33^+/CD11b^+), and Stage IV (CD34^−/CD33^−/CD11b^+) (from immature to mature), as shown in FIG. 7. The effects of Compound 2 on maturation of neutrophil progenitors were assessed and different dosing schedules were evaluated to gain insight into the schedule dependence of these events.
Longer Daily Compound 2 Exposures. To further characterize the potential impacts of different schedules on arrest of neutrophil progenitor maturation and subsequent recovery, changes in the relative proportions of each of the aforementioned stages of myeloid progenitor […] CD34^+ BM cells derived from healthy donors were exposed to Compound 2 on 3 or 5 consecutive days starting on Day 10 for 6 h (Donors No. 1 and 2) or for 24 h (Donors No. 3 and 4) each day. […]

Data set [3] concerns multiple myeloma and plasma cell leukemia cell lines (OPM2.P10, RPMI.8226, L363, JJN-3). Kind of data set: Combination with proteasome inhibitor pulse (flow cytometry, 72 h). The format is cell-based, human. The note with it: then Compound 2 72 h. A general note: Flow cytometry measures light scatter and fluorescence of single cells or particles in a stream.
Protocol: Twenty four hours prior to treatment with a proteasome inhibitor and test compound, an appropriate number of cells were split to a concentration of 0.2×10^6/mL in fresh media to allow for exponential growth. On the day of treatment, compounds were freshly solvated in DMSO. Proteasome inhibitors bortezomib or carfilzomib were diluted and added to pre-warmed culture media at the final working concentrations of 150 nM or 300 nM for bortezomib and 300 nM or 550 nM for carfilzomib. Proteasome inhibitor concentrations were determined based upon clinical Cmax concentrations as well as previous studies in each cell line which determined the duration and concentration of PI required to inhibit a specific amount of β5 proteasome activity. Cells were counted and an appropriate number were placed into media containing proteasome inhibitor and thoroughly mixed. After incubation for 1 h at 37° C., 5% CO2, cells were washed two times with 40 mL of complete media to remove the proteasome inhibitor. […] Plated cells were cultured at 37° C., 5% C02, for the remainder of the experiment, up to 72 h. Every 24 h, proteasome inhibition was monitored by the Cell-Based Proteasome-Glo Assay. Proliferation and apoptosis were measured at 72 h by flow cytometry. Cells were stained with APC Annexin-V and 7-AAD to enumerate the number of viable cells remaining in culture.
An in vitro cell assay was established in order to mimic the clinical pharmacokinetics (PK) and pharmacodynamics (PD) of exposure to proteasome inhibitors bortezomib and carfilzomib.
In data set [4] the test system is unstimulated primary human PBMCs. Briefly: Anti-proliferative counter-screen (CellTiter-Glo, 72 h). It counts as cell-based. The settings on record: PBMC. (In general: A counterscreen serves to expose hits that act by an unwanted route or on another target.)
The test system of the next data set is THLE-2. The description is as above. It counts as cell-based. The settings on record: Homo sapiens.
For a further data set, the target named is T1, CYP2E1 (Homo sapiens, UniProt P05181).
T1 construct: from tissue; host or cells: pooled human liver microsomes
Kind of data set: CYP inhibition in pooled human liver microsomes. It counts as in vitro ADME. The note with it: up to 30 μM. The protocol: Methods. […] In addition, the compounds were evaluated for their potential to act as a time-dependent inhibitors at the same concentrations mentioned above. […] In addition to appropriate vehicle controls, known direct inhibitors and time-dependent inhibitors of CYP isoforms were included as positive controls. Following the incubation, concentrations of probe substrate metabolites were quantified using established LC/MS/MS methods. The extent of inhibition was expressed as the percentage of control activity.

T1 sequence (P05181 whole entry): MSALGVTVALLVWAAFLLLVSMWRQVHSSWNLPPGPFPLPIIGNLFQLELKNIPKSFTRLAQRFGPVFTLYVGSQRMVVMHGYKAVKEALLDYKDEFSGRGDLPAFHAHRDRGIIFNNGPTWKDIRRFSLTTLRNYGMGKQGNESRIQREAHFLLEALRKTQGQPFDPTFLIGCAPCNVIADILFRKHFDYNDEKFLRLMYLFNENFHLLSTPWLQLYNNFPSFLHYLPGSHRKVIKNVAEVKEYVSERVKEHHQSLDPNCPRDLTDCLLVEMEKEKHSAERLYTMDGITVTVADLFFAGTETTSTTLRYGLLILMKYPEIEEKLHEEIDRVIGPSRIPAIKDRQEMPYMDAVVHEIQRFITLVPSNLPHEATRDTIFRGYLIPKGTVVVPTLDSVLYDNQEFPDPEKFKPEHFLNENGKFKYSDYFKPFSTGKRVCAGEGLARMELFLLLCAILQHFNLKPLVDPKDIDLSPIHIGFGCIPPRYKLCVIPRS

`N#Cc1ccc(N2CCN(Cc3ccc(COc4cccc5c4CN([C@H]4CCC(=O)NC4=O)C5=O)cc3)CC2)c(F)c1` [Compound 2, (S)-4-(4-(4-(((2-(2,6-dioxopiperidin-3-yl)-1-oxoisoindolin-4-yl)oxy)methyl)benzyl)piperazin-1-yl)-3-fluorobenzonitrile]: the tumor volume reduction is reported as 75% with H929-1051 xenograft (1 mg/kg QD), 86% in the data set with H929-1051 xenograft (3 mg/kg QD), 84% in the data set on H929-1051 xenograft (10 mg/kg QD) and 85% with H929-1051 xenograft (30 mg/kg QD). The “combination antitumor activity (fractional product method)” value in data set [1] (Compound 2 0.1 mg/kg and dexamethasone 0.5 mg/kg) was “synergistic”. In data set [1] (Compound 2 0.1 mg/kg in combination with dexamethasone 0.5 mg/kg), the “tumor volume reduction (TVR)” value stood at 84%. For the same compound, in data set [1] (single agent Compound 2 0.1 mg/kg oral once daily), the “tumor growth inhibition / tumor volume reduction (TVR)” value was 34%. In addition, the “daratumumab-mediated ADCC of pretreated MM cells” value in the data set on MM cell lines (72 h pretreatment, sub-lethal concentrations, NK cells E:T 10:1) was “higher degree of tumor lysis with daratumumab compared to untreated cells”. The “daratumumab-mediated ADCC” value in the data set with MM cell lines (ARH-77 cell line) is recorded as “enhanced ADCC”. In addition, in data set [2], the loss of viability entry is “no loss of viability was observed”. In addition, the “late-stage maturation of neutrophil progenitors” value in data set [2] (1, 10, 100 nM, 2, 4, 6 h exposures for up to 3 consecutive days) is “blocked”. Moreover, the “effect in combination with bortezomib” value in data set [3] (1 h bortezomib pulse, OPM2.P10, RPMI.8226, JJN-3) is “demonstrated a combination effect”. Besides, the “effect in combination with carfilzomib” value in data set [3] (1 h carfilzomib pulse, 4 cell lines) is listed as “combination effects with Compound 2 were demonstrated in all 4 cell lines”. Moreover, the IC50 (in data set [4]; in the data set with THLE-2) was over 10 µM throughout.
For `O=C1CC[C@H](N2Cc3c(OCc4ccc(CN5CCN(c6ccc(F)cc6F)CC5)cc4)cccc3C2=O)C(=O)N1` [Compound B], the “time-dependent inhibition of CYP2E1” value at CYP2E1 (30 minute preincubation with or without NADPH) is “little to no time-dependent inhibition; also recorded: not a time-dependent inhibitor”. For the same compound, the “direct inhibition of CYP2E1” value at CYP2E1 (human liver microsomes) was “up to 30%”.
